# Assay results: patent publication US4219550A, “Cis- and trans- octahydropyridopyrrolobenzheterocycles” (E. I. Du Pont de Nemours and Company, priority 1978, dated 1980)
# Where a name gives a salt, the structure may show the parent alone. Read-outs that look alike come from different tables or passages of the source.
# Columns and labels:
# [1] = test system: tetrabenazine-induced sedation and depression; test: Mouse tetrabenazine (TBZ) antagonism (ptosis and exploratory activity); assay type: in vivo, Carworth CF1 S female mice
# Method: This mouse test is predictive of human antidepressant response (Everett, "The Dopa Response Potentiation Test and Its Use in Screening for Antidepressant Drugs", pp 164 in "Antidepressant Drugs" [Proceedings of the First International Symposium], S. Garattini and M. N. G. Dukes, eds., 1967).
# Groups of 10 Carworth CF1 S female mice, 18-21 g each, were fasted 1.5 hours and were intubated with antagonist compounds at oral doses of 0, 0.33, 1, 3, 9, 27 and 81 mg/kg in 0.20 ml of 1% Methocel®. The mice were challenged 30 minutes later with tetrabenazine (as the methane-sulfonate), 32 mg/kg intraperitoneally (dissolved in 0.20 ml 0.05 M KCl at pH 2.0). One hour after antagonist (30 minutes after tetrabenazine), the mice were examined for signs of exploratory activity and ptosis (eyelid closure). Normal exploratory activity (relief from sedation) was recorded when a mouse lifted by the tail from a group of 10 in a testing box and placed on a stainless steel testing box lid (12.5"×8" with 0.33" mesh) either turned its head horizontally 30° in both directions or moved to the edge of the screen within 10 seconds after being placed on the screen. Relief from ptosis was recorded when exactly two seconds after placing the mouse facing the observer, lid closure was less than 50% in both eyes.
# [2] = test system: conditioned avoidance response; test: Rat conditioned avoidance response (CAR); assay type: in vivo, male Holtzman rats
# Method: The tranquilizing activity of the compounds of this invention is evidenced by tests conducted in male white rats in which a conditioned avoidance response is interrupted following an oral dose of the drug. This test is predictive of human response to an antipsychotic (tranquilizing) drug. The method of Clark was used (Clark, R., Psychon. Sci. 6, 11, 1966).
# The test animals, male Holtzman rats between 90 and 115 grams, were food deprived 18 hours prior to avoidance training. Test drugs were suspended in 0.5% Methocel.
# The equipment consisted of a plexiglas pit 5"×5"×9" fitted with a metal floor grid which can be electrified via the output of a shock generator. The top end of the pit opened into a surrounding platform 12"×3-1/2" on all four sides. This pit fitted into a larger plexiglas housing which served both to support the pit and to distribute wires to (a) the electrified floor grid, (b) a sound speaker used for stimulus presentation and (c) a 40 watt incandescent bulb also used for stimulus presentation. The main housing was separate from but attached to a metal frame which supported a noise generator, shock generator, and timing/sequence device. The noise generator was a Grason-Stadler Model 1724, used in the 50 KHz bandwidth with output of -10DB. The two-line shock generator supplied a constant A/C current of 0.19 milliamperes, via constantly scrambled 10 HZ square wave output.
# The rats were trained by giving each of them four successive trials 15 to 20 minutes apart with a conditioned stimulus (CS) of a 40-watt incandescent bulb and a white noise plus an unconditioned stimulus (US) of a 0.19 milliampere scrambled shock. Following the four CS+US trials each animal was given an avoidance learning criterion trial in which the CS was presented alone 10 seconds prior to the US.
# Rats were dosed orally with compound of the invention or standard drug, 20 rats/dose. Each rat was tested at 60, 120 and 240 minutes after drug.
# [3] = test system: tetrabenazine-induced sedation and depression; test: Mouse tetrabenazine (TBZ) antagonism (ptosis and exploratory activity); assay type: in vivo, Carworth CF1 S female mice; conditions: 30 mg/kg, footnote mark stands under PTOSIS
# [4] = po, 1 h, read-out: ED50 TBZ ANTAG. EXPLOR.
# [5] = po, 1 h, read-out: ED50 TBZ ANTAG. PTOSIS
SMILES,"ED50 [1, 4] [mg/kg]","ED50 [1, 5] [mg/kg]","ED50 ([2]; po, read-out: ED50 CAR AVOID.) [mg/kg]","ED50 ([2]; po, read-out: ED50 CAR ESCAPE) [mg/kg]","TBZ ANTAG. activity, subcutaneous (footnote *) [3]","ED50 ([1]; oral antagonist, tetrabenazine 32 mg/kg i.p. 30 min later, examined 1 h after antagonist, exploratory activity (relief from sedation), read-out: ED50 TBZ ANTAG. EXPLOR.) [mg/kg]","ED50 ([1]; oral antagonist, tetrabenazine 32 mg/kg i.p. 30 min later, examined 1 h after antagonist, relief from ptosis, read-out: ED50 TBZ ANTAG. PTOSIS) [mg/kg]","ED50 ([2]; oral, 20 rats/dose, tested at 60, 120 and 240 min, avoidance, read-out: ED50 CAR AVOID.) [mg/kg]"
c1cc2c3c(c1)[C@H]1CN(C4CC4)CC[C@@H]1N3CCO2 (relative stereo) [Example 17],11.2,7.5,,,,,,
c1cc2c3c(c1)[C@@H]1CNCC[C@@H]1N3CCCO2 (relative stereo) [Example 4],47,1.6,2.2,14,,,,
CC1CN2c3c(cccc3[C@@H]3CNCC[C@@H]32)S1 (stereo partly drawn) [Example 10],27,23,8.5,~38,,,,
CN1CC[C@H]2[C@@H](C1)c1cccc3c1N2CCS3 (relative stereo) [Example 6],> 81,7.2,17,,,,,
"CCN1CC[C@@H]2[C@@H](C1)c1cccc3c1N2CCS3 [Example 16, (+)-trans-8-Ethyl-1,2,6b, 7,8,9,10,10a-octahydropyrido[3',4':4,5]pyrrolo[1,2,3-de][1,4]benzothiazine]",10.8,7.5,6.2,,,,,
Clc1ccc2c3c1[C@@H]1CNCC[C@@H]1N3CCO2 (relative stereo) [Example 2],27,4.3,~23,> 50,,,,
c1cc2c3c(c1)[C@@H]1CNCC[C@@H]1N3CCS2 (relative stereo) [Example 5],0.4,3.3,1.1,,,,,
c1cc2c3c(c1)[C@@H]1CN(C4CC4)CC[C@@H]1N3CCCS2 (relative stereo) [Example 9],68,68,,,,,,
"CCCCN1CC[C@H]2[C@@H](C1)c1cccc3c1N2CCS3 (relative stereo) [CH2, S, n-C4H9, H, cis]",14,11,5.5,,,,,
c1cc2c3c(c1)[C@@H]1CNCC[C@@H]1N3CCCS2 (relative stereo) [Example 8],,,,,active subcutaneously at 30 mg/kg,,,
CN1CC[C@H]2[C@H](C1)c1cccc3c1N2CCS3 (relative stereo) [Example 18],6.5,6.5,28,,,,,
CC(C)N1CC[C@H]2[C@@H](C1)c1cccc3c1N2CCS3 (relative stereo) [Example 11],14,11,5.5,,,,,
"CN(C)CCC=C1c2ccccc2CCc2ccccc21 [Amitriptyline · HCl, Amitriptyline, reference compound]",,,,,,4.3,1.6,116
"CN(C)CCCN1c2ccccc2Sc2ccc(Cl)cc21 [Chlorpromazine · HCl, Chlorpromazine, reference compound]",> 81,> 81,5.4,~34,,,,
c1cc2c3c(c1)[C@@H]1CNCC[C@@H]1N3CCCS2 (relative stereo) [Example 8a],54,6.6,2.2,,,,,
c1cc2c3c(c1)[C@@H]1CN(C4CC4)CC[C@@H]1N3CCO2 (relative stereo) [Example 3],24,21,28,,,,,
"c1cc2c3c(c1)[C@@H]1CNCC[C@@H]1N3CCO2 (relative stereo) [Example 1, (+)-cis-1,2,6b,7,8,9,10,10a-Octahydropyrido[3', 4': 4,5]pyrrolo[1,2,3,-de][1,4]benzoxazine]",23,1.4,2.2,> 25,,,,
c1cc2c3c(c1)[C@@H]1CN(C4CC4)CC[C@@H]1N3CCS2 (relative stereo) [Example 7],3.3,1.1,,,,,,
